How the values were obtained:
Conditions in all cases: incubation time: 72 h
CAL-148 [1] = assay: normalised viability (% of control), CellTiter-Blue; higher = more viable cells (about 100 = DMSO control)
Method in brief: (§1)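 Each entry is normalised viability at a single listed concentration within a series. It comes from breast cancer cell lines incubated 72 h with compound in 384-well plates, then measured with CellTiter-Blue fluorescence at 560/590 nm. Every plate was normalised between vehicle (100) and a positive kill control (0).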

CAL-85-1 [2] = assay: as above
Method in brief: as §1

DU-4475 [3] = assay: as above
Method in brief: as §1

HDQ-P1 [4] = assay: as above
Method in brief: as §1

Hs578T [5] = assay: as above
Method in brief: as §1

MDA-MB-436 [6] = assay: as above
Method in brief: as §1

BT-474 = assay: drug sensitivity score (DSS), CellTiter-Glo (DSS (AUC-based score)); higher = stronger drug effect (viability inhibition or cytotoxicity); extreme values may be limits of the assay
Method in brief: (§2)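 A drug sensitivity score was derived from the area under each fitted dose-response curve. Breast cancer cells (20 µl suspension) were seeded onto compound in 384-well plates, using 5 concentrations 10-fold apart over a compound-specific 10,000-fold range, and incubated 72 h. Readouts were CellTox Green fluorescence and then CellTiter-Glo luminescence, with every plate normalised to 0.1 % DMSO and a positive kill control.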

BT-549 = assay: as above
Method in brief: as §2

CAL-120 = assay: as above
Method in brief: as §2

CAL-148 [7] = assay: as above
Method in brief: as §2

CAL-51 = assay: as above
Method in brief: as §2

CAL-85-1 [8] = assay: as above
Method in brief: as §2

DU-4475 [9] = assay: as above
Method in brief: as §2

HCC1143 = assay: as above
Method in brief: as §2

HCC1599 = assay: as above
Method in brief: as §2

HCC1937 = assay: as above
Method in brief: as §2

HDQ-P1 [10] = assay: as above
Method in brief: as §2

Hs578T [11] = assay: as above
Method in brief: as §2

MCF-10A = assay: as above
Method in brief: as §2

MDA-MB-231 = assay: as above
Method in brief: as §2

MDA-MB-436 [12] = assay: as above
Method in brief: as §2

MDA-MB-453 = assay: as above
Method in brief: as §2

MDA-MB-468 = assay: as above
Method in brief: as §2

MFM-223 = assay: as above
Method in brief: as §2

SK-BR-3 = assay: as above
Method in brief: as §2

| SMILES | normalised viability (CAL-148 [1]; 3 nM) [%] | normalised viability (CAL-85-1 [2]; 3 nM) [%] | normalised viability (DU-4475 [3]; 3 nM) [%] | normalised viability (HDQ-P1 [4]; 3 nM) [%] | normalised viability (Hs578T [5]; 1000 nM) [%] | normalised viability (MDA-MB-436 [6]; 1000 nM) [%] | drug sensitivity score (BT-474) | drug sensitivity score (BT-549) | drug sensitivity score (CAL-120) | drug sensitivity score (CAL-148 [7]) | drug sensitivity score (CAL-51) | drug sensitivity score (CAL-85-1 [8]) | drug sensitivity score (DU-4475 [9]) | drug sensitivity score (HCC1143) | drug sensitivity score (HCC1599) | drug sensitivity score (HCC1937) | drug sensitivity score (HDQ-P1 [10]) | drug sensitivity score (Hs578T [11]) | drug sensitivity score (MCF-10A) | drug sensitivity score (MDA-MB-231) | also measured |
| --- | --- | --- | --- | --- | --- | --- | --- | --- | --- | --- | --- | --- | --- | --- | --- | --- | --- | --- | --- | --- | --- |
| COc1cc2c(N3CCN(C(=O)Nc4ccc(OC(C)C)cc4)CC3)ncnc2cc1OCCCN1CCCCC1 [Tandutinib] | 102 | 91.2 | 92.9 | 95.5 | 96.2 | 112 | 0 | 0 | 0 | 0 | 0 | 0 | 0 | 0 | 0 | 0 | 0 | 0 | 0 | 0 | normalised viability (CAL-148 [1]; 0.3 nM): 100%; normalised viability (CAL-148 [1]; 10 nM): 105%; normalised viability (CAL-85-1 [2]; 0.3 nM): 102%; normalised viability (CAL-85-1 [2]; 10 nM): 103%; normalised viability (DU-4475 [3]; 0.3 nM): 107%; normalised viability (DU-4475 [3]; 10 nM): 98.1%; normalised viability (HDQ-P1 [4]; 0.3 nM): 105%; normalised viability (HDQ-P1 [4]; 10 nM): 109%; normalised viability (Hs578T [5]; 1 nM): 115%; normalised viability (Hs578T [5]; 100 nM): 116%; normalised viability (MDA-MB-436 [6]; 1 nM): 95%; normalised viability (MDA-MB-436 [6]; 100 nM): 81.9%; drug sensitivity score (MDA-MB-436 [12]): 0; drug sensitivity score (MDA-MB-453): 0; drug sensitivity score (MDA-MB-468): 0; drug sensitivity score (MFM-223): 0; drug sensitivity score (SK-BR-3): 0 |
| C[C@@H](C(=O)O)c1ccc(-c2ccccc2)c(F)c1 [Tarenflurbil] | 80 | 87.2 | 101 | 106 | 106 | 90.4 | 0 | 0 | 0 | 0 | 0 | 0 | 0 | 0 | 0 | 0 | 0 | 0 | 0 | 0 | normalised viability (CAL-148 [1]; 30 nM): 96.6%; normalised viability (CAL-148 [1]; 100 nM): 87.3%; normalised viability (CAL-85-1 [2]; 30 nM): 88.4%; normalised viability (CAL-85-1 [2]; 100 nM): 93%; normalised viability (DU-4475 [3]; 30 nM): 95.6%; normalised viability (DU-4475 [3]; 100 nM): 108%; normalised viability (HDQ-P1 [4]; 30 nM): 106%; normalised viability (HDQ-P1 [4]; 100 nM): 98.9%; normalised viability (Hs578T [5]; 10 nM): 97.7%; normalised viability (Hs578T [5]; 10000 nM): 92.6%; normalised viability (MDA-MB-436 [6]; 10 nM): 104%; normalised viability (MDA-MB-436 [6]; 10000 nM): 138%; drug sensitivity score (MDA-MB-436 [12]): 0; drug sensitivity score (MDA-MB-453): 0; drug sensitivity score (MDA-MB-468): 0; drug sensitivity score (MFM-223): 0; drug sensitivity score (SK-BR-3): 0 |
| Cn1nnc2c(C(N)=O)ncn2c1=O [Temozolomide] | 94 | 102 | 108 | 95.6 | 92.7 | 91.3 | 0 | 0 | 0 | 0 | 0 | 0 | 0 | 0 | 0 | 0 | 0 | 0 | 0 | 0 | normalised viability (CAL-148 [1]; 30 nM): 88.8%; normalised viability (CAL-148 [1]; 100 nM): 93%; normalised viability (CAL-85-1 [2]; 30 nM): 98.2%; normalised viability (CAL-85-1 [2]; 100 nM): 107%; normalised viability (DU-4475 [3]; 30 nM): 95.3%; normalised viability (DU-4475 [3]; 100 nM): 113%; normalised viability (HDQ-P1 [4]; 30 nM): 88.5%; normalised viability (HDQ-P1 [4]; 100 nM): 27.3%; normalised viability (Hs578T [5]; 10 nM): 104%; normalised viability (Hs578T [5]; 10000 nM): 85.1%; normalised viability (MDA-MB-436 [6]; 10 nM): 102%; normalised viability (MDA-MB-436 [6]; 10000 nM): 101%; drug sensitivity score (MDA-MB-436 [12]): 0; drug sensitivity score (MDA-MB-453): 0; drug sensitivity score (MDA-MB-468): 0; drug sensitivity score (MFM-223): 0; drug sensitivity score (SK-BR-3): 0 |
| CC[C@@H]1C(=O)N(C)c2cnc(Nc3ccc(C(=O)N[C@H]4CC[C@H](N5CCN(CC6CC6)CC5)CC4)cc3OC)nc2N1C(C)C [Volasertib] | 94.8 | 86.7 | 88.2 | 84 | 35.1 | 80.8 | 8.07 | 15.1 | 7.64 | 4.27 | 16.3 | 12.6 | 8.16 | 11.2 | 10.3 | 3.79 | 5.3 | 9.68 | 8.92 | 9.58 | normalised viability (CAL-148 [1]; 0.3 nM): 98.2%; normalised viability (CAL-148 [1]; 10 nM): 72%; normalised viability (CAL-85-1 [2]; 0.3 nM): 96.4%; normalised viability (CAL-85-1 [2]; 10 nM): 82.3%; normalised viability (DU-4475 [3]; 0.3 nM): 98.4%; normalised viability (DU-4475 [3]; 10 nM): 86.1%; normalised viability (HDQ-P1 [4]; 0.3 nM): 108%; normalised viability (HDQ-P1 [4]; 10 nM): 76.4%; normalised viability (Hs578T [5]; 1 nM): 111%; normalised viability (Hs578T [5]; 100 nM): 40.3%; normalised viability (MDA-MB-436 [6]; 1 nM): 113%; normalised viability (MDA-MB-436 [6]; 100 nM): 83.5%; drug sensitivity score (MDA-MB-436 [12]): 12.9; drug sensitivity score (MDA-MB-453): 12; drug sensitivity score (MDA-MB-468): 14.8; drug sensitivity score (MFM-223): 15.5; drug sensitivity score (SK-BR-3): 19.9 |

Source: the supplement of paper PMC4862054
